In patent US20110064775A1, “METALLO-ORGANIC SYSTEM FOR THE ENCAPSULATION AND RELEASE OF COMPOUNDS OF INTEREST, METHOD FOR OBTAINING SAME AND USES THEREOF” (CONSEJO SUPERIOR DE INVESTIGACIONES CIENTIFÍCAS, priority 2008, published 2011):
Entries after “also recorded” stand apart in the source; their conditions may differ.

Assay: fluorescence emission spectrum of encapsulated versus free substance (integrity after encapsulation)
Type: physicochemical
Conditions: encapsulated vs free state
From the text: Both images have been obtained using an AxioObserver Z1M (Zeiss Microscope) optical microscope.
The scanning and fluorescence images have been taken using a Hitachi S-570 scanning microscope and an AxioObserver Z1M (Zeiss 25 Microscope) optical microscope, respectively. The fluorescence intensities have been obtained using an Applied Photophysics fluorometer with a Quantel pulsed laser.

In the case of COc1cccc2c1C(=O)c1c(O)c3c(c(O)c1C2=O)C[C@@](O)(C(=O)CO)C[C@@H]3O[C@H]1C[C@H](N)[C@H](O)[C@H](C)O1 [doxorubicin], the “modification or degradation during the encapsulation process” value is reported as “has not been modified; also recorded: has not been modified or degraded”.
